According to article PMC3758588, “Development of an Ultrasensitive Immunoassay for Detecting Tartrazine” (Sensors (Basel, Switzerland), 2013):

Tested on: monoclonal antibody 1F3 (mAb 1F3)
Test: indirect competitive ELISA against Tar-OVA coating antigen
Type: binding, Mus musculus

O=C(O)c1nn(-c2ccc(S(=O)(=O)O)cc2)c(O)c1/N=N/c1ccc(S(=O)(=O)O)cc1 [Tartrazine, trisodium 5-hydroxy-1-(4-sulfonatophenyl)-4-(4-sulfonatophenylazo)-H-pyrazol-3-carboxylate]
IC50: 0.105 ng/mL
